Experimental data: the supplement of paper PMC10307832

Key:
Test in all cases: relative viability (nuclei count vs DMSO), 5 days (fraction); higher = more cells survive
AT9283 + Pictilisib = compound: O=C(Nc1c[nH]nc1-c1nc2ccc(CN3CCOCC3)cc2[nH]1)NC1CC1 [AT9283] + CS(=O)(=O)N1CCN(Cc2cc3nc(-c4cccc5[nH]ncc45)nc(N4CCOCC4)c3s2)CC1 [Pictilisib] (partner 1 µM)
Outline: (§1)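 Relative viability is defined as nuclei in treated wells over nuclei in vehicle wells. Duplicate plates were run and medians reported. Lung cancer cell lines in 1536-well plates were dosed by pin tool one day after seeding, with one drug or with a fixed anchor-drug dose plus five library-drug doses (not always all listed) in √10 steps, and nuclei were counted after 5 days.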

Erlotinib + Lapatinib = compound: C#Cc1cccc(Nc2ncnc3cc(OCCOC)c(OCCOC)cc23)c1 [Erlotinib] + CS(=O)(=O)CCNCc1ccc(-c2ccc3ncnc(Nc4ccc(OCc5cccc(F)c5)c(Cl)c4)c3c2)o1 [Lapatinib] (partner 2 µM)
Outline: as §1

AT9283 + Crizotinib = compound: O=C(Nc1c[nH]nc1-c1nc2ccc(CN3CCOCC3)cc2[nH]1)NC1CC1 [AT9283] + C[C@@H](Oc1cc(-c2cnn(C3CCNCC3)c2)cnc1N)c1c(Cl)ccc(F)c1Cl [Crizotinib] (partner 1 µM)
Outline: as §1

Erlotinib + Decitabine = compound: C#Cc1cccc(Nc2ncnc3cc(OCCOC)c(OCCOC)cc23)c1 [Erlotinib] + Nc1ncn([C@H]2C[C@H](O)[C@@H](CO)O2)c(=O)n1 [Decitabine] (partner 2 µM)
Outline: as §1

AT9283 + Trametinib = compound: O=C(Nc1c[nH]nc1-c1nc2ccc(CN3CCOCC3)cc2[nH]1)NC1CC1 [AT9283] + CC(=O)Nc1cccc(-n2c(=O)n(C3CC3)c(=O)c3c(Nc4ccc(I)cc4F)n(C)c(=O)c(C)c32)c1 [Trametinib] (partner 0.02 µM)
Outline: as §1

Cell Line | relative viability (AT9283 + Pictilisib; first compound 0.003 µM) | relative viability (AT9283 + Pictilisib; first compound 0.03 µM) | relative viability (AT9283 + Pictilisib; first compound 0.09487 µM) | relative viability (AT9283 + Pictilisib; first compound 0.3 µM) | relative viability (Erlotinib + Lapatinib; first compound 0.02 µM) | relative viability (Erlotinib + Lapatinib; first compound 0.2 µM) | relative viability (Erlotinib + Lapatinib; first compound 0.6325 µM) | relative viability (Erlotinib + Lapatinib; first compound 2 µM) | relative viability (AT9283 + Crizotinib; first compound 0.003 µM) | relative viability (AT9283 + Crizotinib; first compound 0.03 µM) | relative viability (AT9283 + Crizotinib; first compound 0.09487 µM) | relative viability (AT9283 + Crizotinib; first compound 0.3 µM) | relative viability (Erlotinib + Decitabine; first compound 0.02 µM) | relative viability (Erlotinib + Decitabine; first compound 0.2 µM) | relative viability (Erlotinib + Decitabine; first compound 0.6325 µM) | relative viability (Erlotinib + Decitabine; first compound 2 µM) | relative viability (AT9283 + Trametinib; first compound 0.003 µM) | relative viability (AT9283 + Trametinib; first compound 0.03 µM) | relative viability (AT9283 + Trametinib; first compound 0.09487 µM) | relative viability (AT9283 + Trametinib; first compound 0.3 µM)
HCC-15 | 0.686 | 0.494 | 0.136 | 0.138 | 0.939 | 0.852 | 0.93 | 0.785 | 0.765 | 0.478 | 0.139 | 0.129 | 0.642 | 0.623 | 0.644 | 0.563 | 0.377 | 0.381 | 0.178 | 0.149
HCC-78 | 0.211 | 0.218 | 0.123 | 0.151 | 0.737 | 0.742 | 0.696 | 0.701 | 0.328 | 0.272 | 0.213 | 0.189 | 0.728 | 0.743 | 0.705 | 0.584 | 0.794 | 0.745 | 0.353 | 0.222
NCI-H2170 | 0.309 | 0.234 | 0.176 | 0.151 | 0.283 | 0.264 | 0.293 | 0.24 | 1.22 | 0.73 | 0.236 | 0.198 | 0.542 | 0.492 | 0.505 | 0.419 | 0.958 | 0.747 | 0.268 | 0.159
NCI-H23 | 0.457 | 0.267 | 0.213 | 0.153 | 1.29 | 0.993 | 1.27 | 0.977 | 0.458 | 0.326 | 0.299 | 0.189 | 0.312 | 0.293 | 0.324 | 0.337 | 0.377 | 0.291 | 0.281 | 0.19
NCI-H838 | 0.544 | 0.265 | 0.182 | 0.216 | 1.21 | 0.759 | 1.26 | 0.853 | 0.877 | 0.367 | 0.246 | 0.186 | 0.507 | 0.48 | 0.488 | 0.465 | 0.543 | 0.275 | 0.16 | 0.144
NCI-H522 | – | – | – | – | – | – | – | – | – | – | – | – | 0.661 | 0.751 | 0.659 | 0.589 | 0.736 | 0.811 | 0.599 | 0.415
NCI-H1650 | 0.586 | 0.273 | 0.178 | 0.218 | 0.705 | 0.728 | 0.899 | 0.828 | 1.01 | 0.596 | 0.267 | 0.217 | 0.331 | 0.365 | 0.509 | 0.421 | 0.604 | 0.545 | 0.399 | 0.179
EMC-BAC-2 | 0.537 | 0.375 | 0.228 | 0.235 | 0.934 | 0.828 | – | 0.822 | 0.67 | 0.36 | 0.163 | 0.151 | – | 0.882 | 0.951 | 0.82 | 0.923 | 0.58 | 0.362 | 0.336
NCI-H1563 | 0.572 | 0.606 | 0.585 | 0.54 | 0.877 | 0.851 | 0.843 | 0.879 | 0.955 | 0.713 | 0.686 | 0.658 | – | – | – | – | – | – | – | –
HCC-366 | 0.145 | 0.152 | 0.0339 | 0.0503 | 1.08 | 1 | 1.33 | 1.09 | 0.547 | 0.179 | 0.105 | 0.0338 | 0.353 | 0.324 | 0.335 | 0.264 | 0.349 | 0.256 | 0.173 | 0.0874
SW 1573 | 0.453 | 0.251 | 0.2 | 0.127 | 1.3 | 1.05 | – | 1.17 | 0.698 | 0.376 | 0.219 | 0.157 | – | 0.511 | 0.495 | 0.576 | 0.597 | 0.174 | 0.17 | 0.143
LOU-NH91 | 0.469 | 0.487 | 0.482 | 0.394 | 0.735 | 0.723 | 0.786 | 0.734 | 0.686 | 0.679 | 0.52 | 0.429 | 0.715 | 0.626 | 0.688 | 0.602 | 0.801 | 0.788 | 0.536 | 0.493
NCI-H1299 | 0.731 | 0.238 | 0.116 | 0.112 | 0.994 | 0.995 | 0.904 | – | 1.01 | 0.475 | 0.339 | 0.346 | – | – | – | – | – | – | – | –
HCC-44 | 0.598 | 0.627 | 0.151 | 0.123 | – | 1.09 | 1.03 | 0.928 | 0.775 | 0.634 | 0.457 | 0.211 | 1 | 0.972 | – | 1 | 0.923 | 1.07 | 0.635 | 0.938
NCI-H1437 | 0.439 | 0.468 | 0.12 | 0.126 | 0.788 | 0.812 | 1 | 0.726 | 1.04 | 0.732 | 0.443 | 0.243 | 0.575 | 0.57 | 0.598 | 0.514 | 0.547 | 0.568 | 0.302 | 0.14
H3255 | 0.448 | 0.461 | 0.213 | 0.148 | 0.323 | 0.259 | 0.253 | – | 0.909 | 0.77 | 0.471 | 0.146 | – | 0.433 | 0.244 | 0.168 | 0.65 | 0.614 | 0.459 | 0.284
Calu-6 | 0.932 | 0.242 | 0.227 | 0.194 | 1.12 | – | 1.1 | 0.979 | 0.742 | 0.253 | 0.238 | 0.291 | – | – | – | – | – | – | – | –
NCI-H2085 | 0.404 | 0.417 | 0.19 | 0.196 | 0.775 | 0.74 | 0.845 | – | 0.865 | 0.693 | 0.471 | 0.328 | 0.573 | 0.585 | 0.531 | 0.496 | 0.532 | 0.453 | 0.395 | 0.318
